Data reported in patent publication US4820828A, “Cinnamohydroxamic acids” (Ortho Pharmaceutical Corporation, priority 1987, dated 1989).
Like-named read-outs stand apart in the source and are kept apart here.

Legend:
5-lipoxygenase = target: T1, 5-lipoxygenase (Rattus norvegicus, UniProt P12527); assay: Inhibition of 5-lipoxygenase in a cell-free homogenate of RBL-1 cells (production of lipoxygenase products from 14C-arachidonic acid); type: biochemical; settings: rat RBL-1 40,000 xg supernatant; for IC50: 50% inhibition of lipoxygenase product generation
T1 construct: The cell-free homogenate was prepared by sonication of the cells followed by centrifugation at 40,000 xg; endogenous in cells; host or cells: RBL-1 (rat basophilic leukemia) cells, 40,000 xg supernatant of the sonicated homogenate
T1 sequence (P12527 1-673): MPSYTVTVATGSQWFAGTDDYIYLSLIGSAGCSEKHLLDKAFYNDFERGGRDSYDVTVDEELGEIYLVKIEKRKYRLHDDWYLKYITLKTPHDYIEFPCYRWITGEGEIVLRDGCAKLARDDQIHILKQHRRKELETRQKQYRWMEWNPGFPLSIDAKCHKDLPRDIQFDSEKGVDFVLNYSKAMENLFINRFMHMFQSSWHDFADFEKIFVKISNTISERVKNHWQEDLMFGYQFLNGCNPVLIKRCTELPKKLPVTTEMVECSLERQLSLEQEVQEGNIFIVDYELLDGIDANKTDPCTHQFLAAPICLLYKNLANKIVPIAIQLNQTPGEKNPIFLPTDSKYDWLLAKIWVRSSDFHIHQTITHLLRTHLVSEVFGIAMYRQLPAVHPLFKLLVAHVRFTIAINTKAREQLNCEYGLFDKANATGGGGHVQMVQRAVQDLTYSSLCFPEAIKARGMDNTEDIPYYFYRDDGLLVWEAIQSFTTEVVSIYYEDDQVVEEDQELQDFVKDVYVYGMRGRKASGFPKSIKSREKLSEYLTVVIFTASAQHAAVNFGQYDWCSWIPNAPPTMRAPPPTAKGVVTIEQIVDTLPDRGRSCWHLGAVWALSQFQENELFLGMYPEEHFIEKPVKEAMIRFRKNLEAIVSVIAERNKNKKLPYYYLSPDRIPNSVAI
Procedure: The inhibition of 5-lipoxygenase was tested in a cell-free homogenate by the procedure of Jakschik, B. et al., Biochem.Biophys.Res.Comm. 95, 103 (1980). Basically, rat basophilic leukemia cells (RBL-1 cells) were maintained in culture in a suitable medium, and were collected by centrifugation prior to assay. The cell-free homogenate was prepared by sonication of the cells followed by centrifugation at 40,000 xg. The CaCl2 dependent production of lipoxygenase products from ^14 C-arachidonic acid in the 40,000 xg supernatant was monitored in the presence of buffer (or other vehicle) or drug. Products were isolated by acidification and extraction, followed by thin layer chromatography. Radioactive areas corresponding to authentic lipoxygenase products were quantitated by liquid scintillation counting. Data was reported as the IC50, the concentration causing 50% inhibition of the generation of lipoxygenase products. The results are shown in Table II as the percent inhibition at 3 μM or the amount of compound necessary to cause 50% inhibition.

[1] = test system: Arachidonate Induced Bronchospasm; assay: Pulmonary mechanics assay: inhibition of arachidonate induced bronchospasm in anesthetized guinea pigs; type: in vivo, guinea pig (male Hartley); settings: Cavia porcellus, guinea pig, % inhibition of control; for inhibition in vivo at 15 mg/kg: dose 15 mg/kg IV; for inhibition in vivo at 10 mg/kg: dose 10 mg/kg ID; for inhibition in vivo at 100 mg/kg: dose 100 mg/kg ID; for inhibition in vivo at 50 mg/kg: dose 50 mg/kg ID; for inhibition in vivo at 25 mg/kg: dose 25 mg/kg ID
Procedure: The bronchodilating activity of the compounds was tested in a pulmonary mechanics assay. Basically, male Hartley guinea pigs (~400-500 g) were anesthetized with urethane (2 g/kg, i.p.) and placed in a whole body plethysmograph. Cannulations of a jugular vein and carotid artery were performed for compound administration and monitoring blood presure, respectively. The trachea was cannulated for respiration at a constant volume via a miniature starling pump. A Validyne differential pressure transducer (±20 cm H2 O) sensed transpleural pressure via a 15 gauge needle inserted into the pleural cavity and a sidearm from the tracheal cannula. Tidal volume was sensed by another Validyne differential pressure transducer (±2 cm H2 O) from pressure changes inside the plethysmograph. An on-line Buxco pulmonary mechanics computer calculated air flow, dynamic lung compliance and lung resistance. The values were recorded on a print-out.
The guinea pigs were pretreated with succinyl choline (1.2 mg/kg, i.v.) to arrest spontaneous respiration. A control challenge of arachidonic acid (0.5-1.0 mg/kg, i.v.) was administered, and the animals were then dosed with the test compound by various routes. At least 10 minutes were allowed to expire between arachidonic acid challenges. A second challenge was given and compared to the control response. This comparison was indicative of cyclooxygenase inhibition. Indomethacin (10 mg/kg, i.v.) was administered immediately after the second challenge. A third challenge of a higher dose of arachidonic acid (5-10 mg/kg, i.v.) was given. This response was induced by SRS-A and compared to the responses elicited by a separate control group of animals. Activity was indicative of lipoxygenase inhibition. Propranolol (0.005 mg/kg, i.v.) may be given prior to the third challenge to enhance the response to SRS-A.
Bronchoconstriction induced by arachidonic acid with or without indomethacin was expressed as maximum percent change in dynamic lung compliance (Cdyn) and maximum percent increase in lung resistance (RL). Each guinea pig served as its own control for cyclooxygenase evaluation, while a treated group was compared to a control group for lipoxygenase evaluation. The results are shown in Table II and are expressed as the percent inhibition of control.

[2] = with indomethacin (10 mg/kg, i.v.), read-out: Bronchodilating Activity, % Inhibition of Arachidonate Induced Bronchospasm, with Indomethacin
[3] = without indomethacin, read-out: Bronchodilating Activity, % Inhibition of Arachidonate Induced Bronchospasm, without Indomethacin
[4] = iv, with indomethacin (10 mg/kg, i.v.), read-out: Bronchodilating Activity, % Inhibition of Arachidonate Induced Bronchospasm, with Indomethacin

| Structure (SMILES) | inhibition at 3 µM (5-lipoxygenase) [%] | inhibition in vivo at 15 mg/kg [1, 2] [%] | inhibition in vivo at 15 mg/kg [1, 3] [%] | also measured |
| --- | --- | --- | --- | --- |
| CN(O)C(=O)/C=C/c1ccc(F)cc1 [Example 1, 4-Fluoro-N-methylcinnamohydroxamic acid] | 30 |  |  |  |
| COc1ccc(OC)c(/C=C/C(=O)N(C)O)c1 [Example 2, 2,5-Dimethoxy-N-methylcinnamohydroxamic acid] | 53 | 49 | 65 |  |
| COc1cc(/C=C/C(=O)N(C)O)cc(OC)c1OC [Example 3, 3,4,5-Trimethoxy-N-methycinnamohydroxamic acid] | 91 | 89 | 0 |  |
| COc1ccc(/C=C/C(=O)N(C)O)cc1OC [Example 4, 3,4-Dimethoxy-N-methylcinnamohydroxamic acid] | 89 | 90 | 82 | IC50 (5-lipoxygenase): 600 nM |
| CN(O)C(=O)/C=C/c1ccc(Cl)c(O)c1 [Example 5, 4-Chloro-3-hydroxy-N-methylcinnamohydroxamic acid] | 35 |  |  |  |
| COc1ccc(/C=C/C(=O)NO)cc1OC [Example 6, 3,4-Dimethoxycinnamohydroxamic acid] | 17 |  |  | inhibition in vivo at 10 mg/kg [1, 4]: 61%; inhibition in vivo at 10 mg/kg [1, 3]: 77% |
| Cc1ccc(/C=C/C(=O)N(C)O)cc1 [Example 7, N,4-Dimethylcinnamohydroxamic acid] |  | 89 | 96 | inhibition in vivo at 100 mg/kg [1, 4]: 0%; inhibition in vivo at 100 mg/kg [1, 3]: 59%; IC50 (5-lipoxygenase): 550 nM |
| COc1ccccc1/C=C/C(=O)N(C)O [Example 8, 2-Methoxy-N--methylcinnamohydroxamic acid] | 66 | 73 | 94 | inhibition in vivo at 50 mg/kg [1, 4]: 58%; inhibition in vivo at 50 mg/kg [1, 3]: -76% |
| COc1ccccc1/C=C\C(=O)N(C)O [Example 9, Cis-2-methoxy-N--methylcinnamohydroxamic acid] | 59 | 36 | 29 |  |
| COc1cc(/C=C/C(=O)N(C)O)cc(OC)c1O [Example 10, 3,5-Dimethoxy-4-hydroxy-N--methylcinnamohydroxamic acid] | 17 |  |  |  |
| CN(O)C(=O)/C=C/c1ccc2c(c1)OCO2 [Example 12, 3,4-Methylenedioxy-N--methylcinnamohydroxamic acid] | 53 | 58 | 15 |  |
| COc1ccc(/C=C/C(=O)N(C)O)cc1 [Example 25, 4-Methoxy-N--methylcinnamohydroxamic acid] |  | 29 | 0 | IC50 (5-lipoxygenase): 1300 nM |
| CN(O)C(=O)/C=C/c1ccc(Cl)cc1 [Example 26, 4-Chloro-N--methylcinnamohydroxamic acid] |  | 70 | 87 |  |

Continued, in another order:

| inhibition at 3 µM (5-lipoxygenase) [%] | Structure (SMILES) | inhibition in vivo at 15 mg/kg [1, 2] [%] | inhibition in vivo at 15 mg/kg [1, 3] [%] | also measured |
| --- | --- | --- | --- | --- |
| 53 | CN(O)C(=O)/C=C/c1ccc2c(c1)OCCO2 [Example 13, 3,4-(1,2-Ethylenedioxy)-N--methylcinnamohydroxamic acid] |  |  |  |
| 88 | CN(O)C(=O)/C=C/c1ccc(Cl)cc1Cl [Example 14, 2,4-Dichloro-N--methylcinnamohydroxamic acid] |  |  |  |
| 24 | CN(O)C(=O)/C=C/c1c(Cl)cccc1Cl [Example 15, 2,6-Dichloro-N--methylcinnamohydroxamic acid] |  |  |  |
| 87 | CN(O)C(=O)/C=C/c1ccc(Cl)c(Cl)c1 [Example 16, 3,4-Dichloro-N--methylcinnamohydroxamic acid] | 86 | 62 |  |
| 50 | CN(O)C(=O)/C=C/c1ccccc1 [Example 17, N--Methylcinnamohydroxamic acid] |  |  | inhibition in vivo at 50 mg/kg [1, 4]: 0%; inhibition in vivo at 50 mg/kg [1, 3]: -35% |
| 100 | COc1cc(/C=C/C(=O)N(C)O)cc(OC)c1 [Example 18, 3,5-Dimethoxy-N--methylcinnamohydroxamic acid] | 78 | 48 |  |
| 44 | COc1cccc(/C=C/C(=O)N(C)O)c1OC [Example 19, 2,3-Dimethoxy-N--methylcinnamohydroxamic acid] | 70 | 34 |  |
| 100 | COc1ccc(/C=C/C(=O)N(C)O)c(OC)c1 [Example 20, 2,4-Dimethoxy-N--methylcinnamohydroxamic acid] |  |  | inhibition in vivo at 25 mg/kg [1, 4]: 46%; inhibition in vivo at 25 mg/kg [1, 3]: 46%; IC50 (5-lipoxygenase): 430 nM |
| 41 | COc1cccc(OC)c1/C=C/C(=O)N(C)O [Example 22, 2,6-Dimethoxy-N--methylcinnamohydroxamic acid] |  |  |  |
| 30 | CN(O)C(=O)/C=C/c1ccc(Cl)c([N+](=O)[O-])c1 [Example 23, 4-Chloro-3-nitro-N--methylcinnamohydroxamic acid] |  |  |  |
| 54 | COc1cccc(/C=C/C(=O)N(C)O)c1 [Example 24, 3-Methoxy-N--methylcinnamohydroxamic acid] | 66 | 28 | inhibition in vivo at 50 mg/kg [1, 4]: 49%; inhibition in vivo at 50 mg/kg [1, 3]: 0% |
| 65 | CN(O)C(=O)/C=C/c1cc(C(C)(C)C)c(O)c(C(C)(C)C)c1 [Example 27, 3,5-Di-t-butyl-4-hydroxy-N--methyl-cinnamo-hydroxamic acid] | 89 | 56 |  |
